Among the data in patent US8088777B2, “Urea derivative” (Shionogi & Co., Ltd., priority 2006, dated 2012) are IC50 values, retold here.

The structures appear in SMILES notation. pIC50: −log10 of the molar value.

The experiment addresses T1, human NPY Y5 receptor (Homo sapiens, UniProt Q15761).
T1 construct: expressed in transfected cells; membranes used
T1 sequence (Q15761 1-445): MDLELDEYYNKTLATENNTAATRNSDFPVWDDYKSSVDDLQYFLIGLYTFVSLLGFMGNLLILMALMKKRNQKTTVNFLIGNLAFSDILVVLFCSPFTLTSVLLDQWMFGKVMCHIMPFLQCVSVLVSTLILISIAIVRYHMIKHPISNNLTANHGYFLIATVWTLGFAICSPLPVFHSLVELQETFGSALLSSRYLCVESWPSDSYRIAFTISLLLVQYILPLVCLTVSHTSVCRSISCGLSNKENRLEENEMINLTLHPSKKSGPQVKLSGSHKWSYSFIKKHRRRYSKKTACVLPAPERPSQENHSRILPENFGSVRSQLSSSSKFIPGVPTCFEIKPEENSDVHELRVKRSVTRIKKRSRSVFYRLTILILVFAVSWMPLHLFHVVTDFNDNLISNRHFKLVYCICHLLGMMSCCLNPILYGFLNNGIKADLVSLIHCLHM
As to the kind of experiment: Affinity for NPY Y5 receptor: inhibition of [125I] peptide YY binding to membranes of CHO cells expressing NPY Y5 receptor. As to conditions: [125I] peptide YY 60 pM, 25° C., 2 hours, read-out: 50% inhibitory concentration of the test compound against the specific peptide YY binding (IC50 value). An excerpt:
cDNA sequence encoding a human NPY Y5 receptor (WO96/16542) was cloned in a vector pME18S (Takebe et al. Mol. Cell. Biol. 8, 8957). The obtained expression vector was transfected into CHO cells as a host by using Lipofect AMINE reagent (Trademark, Gibco BRL Co., Ltd.) according to the instruction […] manual. The cells that stably express NPY Y5 receptor were obtained.
The membranes prepared from the CHO cells expressing NPY Y5 receptor, the compound of the present invention and 30,000 cpm [^125I] peptide YY (60 pM of final concentration: Amersham) were incubated in the assay buffer (20 mM HEPES-Hanks buffer containing 0.1% bovine serum albumin, pH 7.4) at 25° C. for 2 hours, and then the membrane was collected by filtering the mixture through a glassfilter (GF/C) presoaked with 1% polyethyleneimine. After washing with 50 mM Tris-HCl buffer (pH 7.4), radioactivity retained on the filters was quantified with a gamma counter. Nonspecific binding was defined as the amount of radioactivity bound to the membranes after incubation in the presence of 200 nM of peptide YY. The 50% inhibitory concentration of the test compound against the specific peptide YY binding (IC50 value) was calculated (Inui, A. et al. Endocrinology 131, 2090-2096 (1992)).
With `CC(C)n1c(=O)oc2cc(NC(=O)N[C@H]3CC[C@H](NS(=O)(=O)C(C)C)CC3)ccc21` [Example II-14], the pIC50 is 9.49.

As for `CCS(=O)(=O)N(C)C1CCC(N(C)C(=O)Nc2ccc3c(c2)oc(=O)n3C(C)C)CC1` (stereo not drawn) [Example II-2], the pIC50 is 8.73.

Take `CC(C)n1c(=O)oc2cc(NC(=O)N[C@H]3CC[C@H](NS(=O)(=O)C(C)(C)C)CC3)ccc21` [Example II-12]: the pIC50 is 9.26.
